Data published in PMC10669220, “In Vitro α-Glucosidase and α-Amylase Inhibition, Cytotoxicity and Free Radical Scavenging Profiling of the 6-Halogeno and Mixed 6,8-Dihalogenated 2-Aryl-4-methyl-1,2-dihydroquinazoline 3-Oxides” (Antioxidants, 2023).

Assays:
[1] = target: T1, human α-amylase (Homo sapiens, UniProt P04746); assay: α-amylase inhibitor screening kit assay; format: biochemical; conditions: mean ± SD, triplicate; tested at 1, 5, 10, 25, 50 µM
T1 construct: purchased Abcam ab283391
T1 sequence (P04746 16-511): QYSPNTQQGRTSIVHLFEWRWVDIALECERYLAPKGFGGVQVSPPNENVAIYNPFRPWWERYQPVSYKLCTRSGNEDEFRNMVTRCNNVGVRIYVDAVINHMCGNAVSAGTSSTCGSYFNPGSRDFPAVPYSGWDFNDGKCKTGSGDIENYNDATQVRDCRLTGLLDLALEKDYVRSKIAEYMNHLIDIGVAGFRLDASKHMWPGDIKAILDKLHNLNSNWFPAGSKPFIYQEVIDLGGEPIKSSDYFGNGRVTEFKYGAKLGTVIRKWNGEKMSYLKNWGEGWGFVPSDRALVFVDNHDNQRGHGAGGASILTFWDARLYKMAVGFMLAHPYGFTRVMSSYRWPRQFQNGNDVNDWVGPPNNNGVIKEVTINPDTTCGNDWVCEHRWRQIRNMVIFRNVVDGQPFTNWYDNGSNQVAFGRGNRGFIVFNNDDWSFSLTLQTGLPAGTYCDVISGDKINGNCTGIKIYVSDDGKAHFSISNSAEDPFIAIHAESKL
Description: The α-amylase assay was performed in triplicate, using a 96-well plate following the procedure recommended by the manufacturer as outlined in the α-amylase inhibitor Screening Kit (Catalogue No. ab283391; Abcam). […] The average values obtained from the absorbance readings were used to determine the IC50 and standard deviation values in GraphPad prism from nonlinear regression dose–response curves.

[2] = system: breast cancer (MCF-7) cell line; assay: MTT cytotoxicity assay, MCF-7; conditions: for Cell viability percentage, MCF-7: Table S2
Description: Cells were cultured in sterile Dulbecco’s Minimal Essential Medium (DMEM, Gibco) supplemented with 10% fetal bovine serum (FBS) and 1% penicillin-streptomycin solution. […] Cell counting was carried out using a handheld automated cell counter (Scapter 3.0™, Merck, Burlington, MA, USA) and seeded (1 × 10^4 cells/well) into a 96-well plate. After 24 h, the cells were treated with different concentrations (1, 5, 10, 25 and 50 µM) of the test compounds and reference standards prepared in DMEM. The MTT solution (20 μL) prepared in PBS (5 mg/mL) was added to all the wells, and the plates were incubated for 4 h, followed by 1 h incubation with 100 µL of dimethyl sulfoxide (DMSO) to dissolve the formazan crystals. Untreated cells and 5% DMSO were included in the experiment as negative controls. All experiments were performed in triplicate. The plates were read at 570 nm at a reference wavelength of 630 nm using an ELISA plate reader (Varioskan Flash, ThermoFisher Scientific, Vantaa, Finland). The percentage of cell viability was calculated using the following formula, Cell viability %=At/Ab×100 where At represents the absorbance value of test compound and Ab the absorbance value of the blank. […] The data were expressed as means ± SD.

In the case of CC1=[N+]([O-])C(c2ccccc2)Nc2c(I)cc(Br)cc21 (stereo not shown) [Compound 3i], the IC50 [1] is reported as 1.18 ± 0.06 µM, the “Cell viability percentage, MCF-7” value ([2]; Conc. 1 (µM per method)) is reported as 24,1184% and the “Cell viability percentage, MCF-7” value ([2]; Conc. 5 (µM per method)) is reported as 22,006%. For the same compound, the “Cell viability percentage, MCF-7” value ([2]; Conc. 10 (µM per method)) was 22,1058%, the “Cell viability percentage, MCF-7” value ([2]; Conc. 25 (µM per method)) was 19,5775% and the “Cell viability percentage, MCF-7” value ([2]; Conc. 50 (µM per method)) was 18,1803%. The IC50 ([2]; Homo sapiens, MCF7, read-out: IC50 MCF-7) was 15.43 ± 0.06 µM.
